Laboratory results reported in patent US20250221981A1, “MAT2A INHIBITOR AND/OR TSG101 INHIBITOR FOR USE IN ANTIVIRAL THERAPY” (CAMBRIDGE ENTERPRISE LIMITED, priority 2022, published 2025).

Experiments:
[1] = test system: BKPyV; assay: Fluorescence focus unit (FFU) assay of infectious BKPyV from treated RPTE/TERT1 cells; type: cell-based, BK polyomavirus; details: added 1 hr post infection, MOI 1
Procedure: (B) Effect of PF-9366 on viral replication: Cells were infected with BKPyV (MOI 1) in media containing appropriate drug concentrations. At 1 hpi infectious media was removed, cells were washed and fresh media with appropriate drug concentrations was added. At 48 hpi cells were harvested and infectious BKPyV was measured by FFU assay. n=3.
(§1) Cells were treated with MAT2A inhibitors at 1 hr post infection and were harvested at 48 hr post infection at MOI 1. (A) Total infectious BKPyV synthesis expressed as fold change to DMSO control (FFU titre assay). (B) Total viral protein expression (LTAg and VP1) was analysed by western blot. Tubulin was used as loading control. All error bars represent SEM. Two sample paired T-test was used to determine significance (*p<0.05; **p<0.01; ***p<0.001, ****p<0.0001), all numerical data shown were obtained over 2 independent experiments.
(§2) RPTE/hTERT cells were treated with inhibitors at 1 hr post infection (PI), infected at MOI 1. (A) Viral growth curves using FFU titre assay in drug treated and untreated cells infected with BKPyV at MOI 1 for 48 hr PI, 72 hr PI and 96 hr PI. (B) Total viral protein expression (LTAg and VP1) from drug treatments and untreated control was analysed by western blot with samples harvested at 48 hr PI and 96 hr PI. Tubulin was used as loading control. All error bars represent SEM. All numerical data shown were obtained over 2 independent experiments.
The ability for PF-9366 to inhibit the production of infectious virus was then investigated. RPTE/TERT1 cells were once again treated with a concentration range of PF-9366 or DMSO as a control prior to infection, and as before, infected with BKPyV (MOI 1) then washed and media replaced at 1 hpi. At 48 hpi total virus was harvested from each condition and an FFU assay was conducted to determine BKPyV virus titre (FIG. 3B).
For BKPyV infections, RPTE/TERT1, RPTE/TERT1-Cas9 or RPTE/TERT1 MAT2A KO cells were infected with BKPyV at either a multiplicity of infection (MOI) of 5 for growth curves or an MOI of 3 or 1 for all other experiments, diluted in appropriate medium. At 1 hour post infection (hpi) medium was removed, cells were washed twice with phosphate-buffered saline (PBS), and fresh medium was added with or without inhibitors. At 24, 48, 72 or 96 hpi cells were either harvested for western blot, RT qPCR or virus titre by FFU assay, or fixed for immunofluorescence analysis.
FFU assays were used to determine the concentration of infectious BKPyV in experimental samples. RPTE/TERT1 cells were infected with sample dilutions, fixed at 48 hpi in 3% formaldehyde, and immunostained for VP1 expression as described in Evans et al. (Open Biol. 2015 August; 5 (8): 150041).
Example 1: PF-9366 (Sigma-Aldrich) and AG-270 (kindly supplied by Astra Zeneca) were diluted in 100% DMSO. Cells were drug treated at a range of concentrations in REBM supplemented with BulletKit (Lonza) for 3 hours prior to infection. Cells were infected with BK-Dunlop in media and appropriate drug dilution. At 1 hpi infectious media was removed, cells gently washed with PBS and media containing appropriate drug dilutions was added. At 48 hpi cells were either fixed in 3% formaldehyde for microscopy, or harvested by scraping up into fresh drug-free media.
TSG101 inhibitor Ilaprazole (Sigma-Aldrich) was diluted in 100% DMSO. Cells were treated at a range of inhibitor concentrations and combinations, in appropriate media for the cell type used, for either 3 hours prior to infection (HSV-1, Alphavirus and Flavivirus infections) or 1 hour post infection (BKPyV infection).

[2] = test system: BKPyV; assay: Western blot of BKPyV viral protein expression (LTAg, VP1) in RPTE/TERT1 cells; type: cell-based, BK polyomavirus; details: MOI 1
Procedure: (C)(i) Effect of PF-9366 on viral early and late gene and cellular MAT2A expression: Cells were infected with BKPyV (MOI 3) in media containing appropriate drug concentrations. At 1 hpi infectious media was removed, cells were washed and fresh media with appropriate drug concentrations was added. Cells were harvested at 48 hpi and a western blot performed. Membranes were blotted for viral late gene VP1, LTAg, cellular MAT2A/MAT1A, and tubulin as a loading control.
(iii) Viral gene expression is modulated in response to PF-9366: The density of BKPyV VP1 and LTAg expression were measured, normalized to tubulin loading control (LiCor Image Studio Software), n=3.
as §1, §2
It has previously been noted by Quinlan et al. (Nat Chem Biol. 2017 13 (7): 785-792) that treatment with PF-9366 can increase MAT2A expression as a compensatory mechanism within cells. To investigate this, cells were once again treated with a range of PF-9366 for 3 hours prior to infection (or DMSO treated). Cells were infected with BKPyV (MOI 3), washed at 1 hpi, and fresh drug treated media was added. At 48 hpi cells were harvested and protein expression was analysed by western blotting (FIG. 3C(i)). MAT2A expression was quantified from band intensities, normalised to the tubulin loading control and plotted (FIG. 3C(ii), n=3). A clear increase in the cellular expression of MAT2A was observed, up to an 8-fold increase at 10 μM PF-9366. Western blot analysis was also conducted on early viral gene (LTAg) and late viral gene (VP1) expression (FIG. 3C(iii), n=3).
Cell lysate preparation and western blots were performed as described in Ren et al. (J Gen Virol. 2012 February; 93 (Pt 2): 319-329). Primary antibodies used were ab53977 (VP1), PAb416 (LTAg), sc-166452 (MAT2A/1A), ab110226 (VP16), sc-53070 (ICP0), anti-Zika E Protein, and either anti-GAPDH or anti-tubulin as a loading control, followed by IRDye 680LT-, or IRDye 800CW-conjugated secondary antibodies. Imaging was performed using the LI-COR Odyssey Infrared Imaging system. Quantification was performed using LI-COR Image Studio Software.

[3] = test system: RPTE/hTERT cells; assay: Cell viability assay, CellTiter-Blue fluorescence
Procedure: RPTE/hTERT cells were treated with MAT2A inhibitors at increasing concentrations for 48 hrs and assayed for cell viability using CellTiter-Blue fluorescence. Experiments were conducted using biological triplicates.
Experiment was conducted using biological triplicates.
Cell viability was assessed using the Cell-Titer-Blue assay (Promega), following manufacturers guidelines.

[4] = 125 nM to 1 μM, dose dependent, 48 hr post infection

Compound	inhibition of BKPyV replication (total infectious BKPyV, FFU titre) ([1]; 125 nM, 250 nM, 500 nM and 1 μM, 48 hr post infection)	early viral protein (LTAg) levels (western blot) [2, 4]	late viral protein (VP1) levels (western blot) [2, 4]	effect on cell viability and metabolism ([3]; at concentrations inhibiting BKPyV replication, 48 hrs)	BKPyV viral replication (FFU titre) ([1]; Ilaprazole alone)	BKPyV protein expression (LTAg and VP1, western blot) ([2]; Ilaprazole alone, 48 and 96 hr PI)	effect on cell viability ([3]; Ilaprazole alone, every 48 hr until 144 hr)
CN(C)c1nc(=O)n(-c2ccccc2)c2cc(Cl)ccc12 [AZ28]	significant dose dependent inhibition	reduced	reduced	little effect	–	–	–
COc1ccnc(C[S+]([O-])c2nc3cc(-n4cccc4)ccc3[nH]2)c1C (stereo not shown) [Ilaprazole]	–	–	–	–	significantly inhibit	significantly inhibit	little effect
